What was measured:
Assay in all cases: viability inhibition at highest dose (% inhibition); higher = more growth inhibition
BT-474 = details: 72 h
Description: (§1)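 Percent inhibition of viability (CellTiter-Glo, 72 h) at the highest tested concentration (D5), normalised to DMSO (0%) and 100 µM benzethonium chloride (100%). Resistant lines and the 'in 1µM tamoxifen' arms were tested in 1 µM 4-OH-tamoxifen.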

MCF-7 = details: 72 h
Description: as §1

BT-474 Tam2 = details: 4-OH-tamoxifen in medium 1 µM; 72 h
Description: as §1

ZR-75-1 Tam1 = details: 4-OH-tamoxifen in medium 1 µM; 72 h
Description: as §1

T-47D Tam1 = details: 4-OH-tamoxifen in medium 1 µM; 72 h
Description: as §1

BT-474 Tam1 = details: 4-OH-tamoxifen in medium 1 µM; 72 h
Description: as §1

T-47D Tam2 = details: 4-OH-tamoxifen in medium 1 µM; 72 h
Description: as §1

T-47D = details: 72 h
Description: as §1

ZR-75-1 Tam2 = details: 4-OH-tamoxifen in medium 1 µM; 72 h
Description: as §1

MCF-7 Tam1 = details: 4-OH-tamoxifen in medium 1 µM; 72 h
Description: as §1

ZR-75-1 = details: 72 h
Description: as §1

Row | SMILES | viability inhibition at highest dose (BT-474; 4-OH-tamoxifen in medium 0 µM) | viability inhibition at highest dose (BT-474; 4-OH-tamoxifen in medium 1 µM) | viability inhibition at highest dose (MCF-7; 4-OH-tamoxifen in medium 0 µM) | viability inhibition at highest dose (MCF-7; 4-OH-tamoxifen in medium 1 µM) | viability inhibition at highest dose (BT-474 Tam2) | viability inhibition at highest dose (ZR-75-1 Tam1) | viability inhibition at highest dose (T-47D Tam1) | viability inhibition at highest dose (BT-474 Tam1) | viability inhibition at highest dose (T-47D Tam2) | viability inhibition at highest dose (T-47D; 4-OH-tamoxifen in medium 0 µM) | viability inhibition at highest dose (T-47D; 4-OH-tamoxifen in medium 1 µM) | viability inhibition at highest dose (ZR-75-1 Tam2) | viability inhibition at highest dose (MCF-7 Tam1) | viability inhibition at highest dose (ZR-75-1; 4-OH-tamoxifen in medium 0 µM) | viability inhibition at highest dose (ZR-75-1; 4-OH-tamoxifen in medium 1 µM)
1 | CN(Cc1cnc2nc(N)nc(N)c2n1)c1ccc(C(=O)N[C@@H](CCC(=O)O)C(=O)O)cc1 [Methotrexate] (drug 10000 nM) | -11.3 | -21.2 | 18.8 | 29.1 | 2.17 | 15.9 | -0.232 | -17.3 | 6.27 | -7.44 | -4.13 | 10.5 | 14.2 | 22.8 | 2.09
2 | COc1c2occc2cc2ccc(=O)oc12 [Methoxsalen] (drug 10000 nM) | -4.57 | 7.92 | -6.63 | 1.6 | 1.89 | 2.54 | -4.99 | 10.8 | 7.26 | -17.2 | -5.34 | -6.82 | -6.39 | -8.57 | 1.74
3 | C[C@H]1C[C@@H]2[C@H]([C@@H](O)C[C@@]3(C)[C@H]2CC[C@]3(O)C(=O)CO)[C@@]2(C)C=CC(=O)C=C12 [Methylprednisolone] (drug 10000 nM) | -7.44 | -20.6 | -1.81 | 18.4 | -2.3 | 6.19 | -1.09 | -9.86 | 8.67 | -19.3 | -15.1 | 0.244 | -0.753 | -6.28 | -4.27
4 | CO[C@@H]1[C@H](N(C)C(=O)c2ccccc2)C[C@H]2O[C@]1(C)n1c3ccccc3c3c4c(c5c6ccccc6n2c5c31)C(=O)NC4 [Midostaurin (PKC412)] (drug 10000 nM) | 23.7 | 40.4 | 18.9 | 17 | 19.4 | -11.5 | 34.6 | 27.5 | 25.1 | 18.3 | 39.4 | -15.6 | 17.7 | -11.7 | 0.532
5 | CO[C@@]12[C@H](COC(N)=O)C3=C(C(=O)C(C)=C(N)C3=O)N1C[C@@H]1N[C@@H]12 [Mitomycin C] (drug 10000 nM) | -12.3 | -7 | 16.2 | 11.4 | 0.827 | 28.3 | 33.5 | 0.772 | 10.8 | 31.4 | -4.69 | 23.4 | -6.06 | 25.5 | 23.7
6 | Clc1ccc(C(c2ccccc2Cl)C(Cl)Cl)cc1 (stereo not given) [Mitotane] (drug 10000 nM) | -9.37 | -3.54 | -8.27 | 0.312 | 3.56 | 1.3 | 8.29 | 4.23 | 8.17 | -16.5 | -15.2 | -0.971 | -2.99 | -16.5 | -2.85
7 | O=C1c2c(O)ccc(O)c2C(=O)c2c(NCCNCCO)ccc(NCCNCCO)c21 [Mitoxantrone] (drug 1000 nM) | 3.96 | -1.95 | -3.19 | 7.73 | -13.6 | 21.3 | 47.8 | -23.8 | 21.5 | 29.5 | 2.9 | 24.9 | 1.72 | 29.7 | 20.2

— the supplement of paper PMC4932681
